Test results reported in the supplement of paper PMC13380429.

What was measured:
Conditions in all cases: 72 h
HepG2 [1] = assay: cell viability relative to DMSO; higher = less toxic
Vero E6 [2] = assay: as above
Caco-2 [3] = assay: as above
U2OS [4] = assay: as above
HepG2 [5] = assay: drug sensitivity score (DSS) for viability; higher = more toxic; extreme values may be limits of the assay
Vero E6 [6] = assay: as above
Caco-2 [7] = assay: as above
U2OS [8] = assay: as above
HepG2 [9] = assay: relative viability EC50 (midpoint between 100% and the lowest measured viability); higher = less toxic
Vero E6 [10] = assay: as above
Caco-2 [11] = assay: as above
U2OS [12] = assay: as above
Calu-3 [13] = assay: cell viability relative to DMSO; higher = less toxic
Calu-3 [14] = assay: drug sensitivity score (DSS) for viability; higher = more toxic; extreme values may be limits of the assay
Calu-3 [15] = assay: relative viability EC50 (midpoint between 100% and the lowest measured viability); higher = less toxic

| SMILES | cell viability (HepG2 [1]; 1 nM) [%] | cell viability (HepG2 [1]; 10 nM) [%] | cell viability (HepG2 [1]; 100 nM) [%] | cell viability (HepG2 [1]; 1000 nM) [%] | cell viability (HepG2 [1]; 10000 nM) [%] | cell viability (Vero E6 [2]; 1 nM) [%] | cell viability (Vero E6 [2]; 10 nM) [%] | cell viability (Vero E6 [2]; 100 nM) [%] | cell viability (Vero E6 [2]; 1000 nM) [%] | cell viability (Vero E6 [2]; 10000 nM) [%] | cell viability (Caco-2 [3]; 1 nM) [%] | cell viability (Caco-2 [3]; 10 nM) [%] | cell viability (Caco-2 [3]; 100 nM) [%] | cell viability (Caco-2 [3]; 1000 nM) [%] | cell viability (Caco-2 [3]; 10000 nM) [%] | cell viability (U2OS [4]; 1 nM) [%] | cell viability (U2OS [4]; 10 nM) [%] | cell viability (U2OS [4]; 100 nM) [%] | cell viability (U2OS [4]; 1000 nM) [%] | cell viability (U2OS [4]; 10000 nM) [%] | drug sensitivity score (HepG2 [5]) | drug sensitivity score (Vero E6 [6]) | drug sensitivity score (Caco-2 [7]) | drug sensitivity score (U2OS [8]) | relative viability EC50 (HepG2 [9]) [µM] | relative viability EC50 (Vero E6 [10]) [µM] | relative viability EC50 (Caco-2 [11]) [µM] | relative viability EC50 (U2OS [12]) [µM] | cell viability (Calu-3 [13]; 1 nM) [%] | cell viability (Calu-3 [13]; 10 nM) [%] | cell viability (Calu-3 [13]; 100 nM) [%] | cell viability (Calu-3 [13]; 1000 nM) [%] | cell viability (Calu-3 [13]; 10000 nM) [%] | drug sensitivity score (Calu-3 [14]) | relative viability EC50 (Calu-3 [15]) [µM] |
| --- | --- | --- | --- | --- | --- | --- | --- | --- | --- | --- | --- | --- | --- | --- | --- | --- | --- | --- | --- | --- | --- | --- | --- | --- | --- | --- | --- | --- | --- | --- | --- | --- | --- | --- | --- |
| c1ccc(CCNc2nc(-c3ccccc3)cs2)cc1 [fanetizole] | 101 | 96.9 | 103 | 94.5 | 100 | 98.7 | 99.7 | 101 | 98.4 | 100 | 96.4 | 87.3 | 92.3 | 88.9 | 87.3 | 104 | 104 | 104 | 97.7 | 101 | 0 | 0 | 0.9 | 0 | > 10 | > 10 | > 10 | > 10 | – | – | – | – | – | – | – |
| COc1ccc(C(=O)C2CCN(CC(=O)N(Cc3nc4c(c(=O)[nH]3)COCC4)CC3CC3)CC2)cc1 [NVP-TNKS656] | 98.7 | 106 | 106 | 106 | 93.6 | 105 | 101 | 83.1 | 63.1 | 65.9 | 110 | 96.7 | 92.9 | 109 | 93.3 | 99 | 96.7 | 91.5 | 88.9 | 90.6 | 0 | 8.7 | 0 | 0.3 | > 10 | – | > 10 | > 10 | 95.3 | 97.3 | 70.3 | 68.2 | 82.7 | 9.5 | – |
| O=C(O)c1cc2occc2[nH]1 | 99.2 | 104 | 103 | 92.6 | 103 | 107 | 104 | 102 | 99.8 | 101 | 91.3 | 89 | 94.2 | 94.1 | 94.6 | 98.6 | 104 | 99.5 | 102 | 98.7 | 0 | 0 | 0 | 0 | > 10 | > 10 | > 10 | > 10 | – | – | – | – | – | – | – |
| Cc1nc2ccccc2n1Cc1ccc(Cl)cc1 [chlormidazole] | 92.3 | 95.4 | 109 | 92.1 | 25.1 | 96.7 | 107 | 104 | 107 | 85.9 | 103 | 101 | 109 | 83.1 | 77.8 | 99.2 | 95.9 | 98.8 | 96.9 | 95.8 | 5.4 | 0.1 | 2.4 | 0 | 2.3 | > 10 | > 10 | > 10 | – | – | – | – | – | – | – |
| Cc1nc(-c2cn3c(n2)-c2ccc(-c4cnn(C(C)(C)C(N)=O)c4)cc2OCC3)n(C(C)C)n1 [taselisib] | 97.4 | 84.8 | 70.3 | 62.7 | 52 | 106 | 106 | 97.3 | 85 | 62.6 | 106 | 99.6 | 90.8 | 59.4 | 32.4 | 102 | 97.3 | 90.4 | 70.3 | 57.2 | 11.6 | 3.5 | 8.9 | 6.2 | – | – | 0.649 | – | 99.2 | 88.1 | 63.6 | 36 | 24 | 16.9 | 0.107 |
| O=C(/C=C/c1ccc(O)c2c1[C@H](C(=O)O[C@H](Cc1ccc(O)c(O)c1)C(=O)O)[C@@H](c1ccc(O)c(O)c1)O2)O[C@H](Cc1ccc(O)c(O)c1)C(=O)O [salvianolic-acid-B] | 101 | 86.8 | 107 | 96.3 | 98 | 96.1 | 92.9 | 95.3 | 91.6 | 103 | 99.2 | 97.1 | 96.6 | 104 | 101 | 94.4 | 98.2 | 97.5 | 101 | 97.8 | 0 | 0 | 0 | 0 | > 10 | > 10 | > 10 | > 10 | – | – | – | – | – | – | – |
| c1ccc(NCc2ccc(CNc3ccccn3)cc2)nc1 [WZ811] | 98.6 | 101 | 98.7 | 106 | 111 | 93.5 | 95.5 | 94.2 | 101 | 103 | 97.9 | 105 | 103 | 95.5 | 100 | 96.8 | 96.1 | 99.8 | 96.7 | 97.9 | 0 | 0 | 0 | 0 | > 10 | > 10 | > 10 | > 10 | – | – | – | – | – | – | – |
| Cc1ccc(S(=O)(=O)NC(=O)NN2CC3CCCC3C2)cc1 (stereo unspecified) [gliclazide] | 99.1 | 96.1 | 105 | 118 | 108 | 106 | 97 | 101 | 99.2 | 102 | 87 | 110 | 100 | 102 | 89 | 92 | 99.3 | 102 | 93.3 | 101 | 0 | 0 | 0 | 0 | > 10 | > 10 | > 10 | > 10 | – | – | – | – | – | – | – |
| COc1ccc2nc3[nH]nc(C)c3c(NCCOCCO)c2c1 | 104 | 97.2 | 102 | 87.6 | 75 | 106 | 98 | 102 | 99.4 | 91.9 | 103 | 102 | 89.6 | 100 | 96.8 | 102 | 102 | 95.9 | 105 | 104 | 2.4 | 0 | 0 | 0 | > 10 | > 10 | > 10 | > 10 | 106 | 107 | 88.8 | 94.7 | 70 | 2.1 | – |
| O=c1oc2cc(O)ccc2s1 [tioxolone] | 104 | 90.4 | 96 | 93.7 | 104 | 101 | 98.1 | 99.9 | 94.2 | 101 | 90.6 | 97.9 | 88.6 | 107 | 77.2 | 96.2 | 103 | 100 | 104 | 95.6 | 0 | 0 | 0.5 | 0 | > 10 | > 10 | > 10 | > 10 | 99.8 | 102 | 97.8 | 98.5 | 64.3 | 1.9 | – |
| COc1ccc(S(=O)(=O)N(C(C)=O)c2ccccc2/C=C/c2cc[n+]([O-])cc2)cc1 [HMN-214] | 98.4 | 105 | 98.1 | 40.3 | 38 | 94.6 | 97.9 | 99.8 | 41.8 | 41 | 105 | 89.6 | 94.2 | 60.3 | 48.4 | 97.5 | 95.8 | 96.9 | 51.9 | 29.3 | 11.3 | 10.7 | 8 | 9.8 | 0.323 | 0.324 | 0.41 | 0.634 | 101 | 95 | 105 | 71.5 | 60.4 | 5.3 | – |
| COc1cccc(-c2ccc(NC(=O)C3=C(C(=O)O)CCC3)c(F)c2)c1 | 103 | 89.4 | 98.8 | 97.5 | 92.6 | 90.1 | 92.2 | 98 | 95.8 | 90.8 | 96.4 | 93.1 | 103 | 98.6 | 78.8 | 99 | 105 | 96.8 | 104 | 96.2 | 0 | 0 | 0.9 | 0 | > 10 | > 10 | > 10 | > 10 | – | – | – | – | – | – | – |
| COc1ccccc1OCC(O)CNC(C)C (stereo unspecified) [moprolol] | 98.3 | 113 | 100 | 98.3 | 103 | 102 | 99.6 | 105 | 99.5 | 102 | 97.7 | 95.4 | 99.6 | 98.2 | 92.7 | 101 | 96.6 | 99.7 | 102 | 103 | 0 | 0 | 0 | 0 | > 10 | > 10 | > 10 | > 10 | – | – | – | – | – | – | – |
